{"source": "EPA's ToxValDB 9.5", "key": {"Rattus norvegicus [1]": {"system": "Rattus norvegicus", "settings": "uterotrophic, Active"}, "Rattus norvegicus [2]": {"system": "Rattus norvegicus", "settings": "subchronic, duration: 13 weeks, oral, gavage, M/F, Fischer 344"}, "Rattus norvegicus [3]": {"system": "Rattus norvegicus", "settings": "oral"}, "Mus musculus": {"system": "Mus musculus", "settings": "for LD50: acute"}, "Rattus norvegicus [4]": {"system": "Rattus norvegicus"}, "[5]": {"settings": "subchronic, M/F, forestomach lesions, kidney toxicity"}, "[6]": {"settings": "chronic, duration: 91 days, oral, gavage"}, "[7]": {"settings": "chronic, duration: 103 weeks, oral, diet, B6C3F1"}, "[8]": {"settings": "subchronic, duration: 12 weeks, oral, diet, M, B6C3F1"}, "[9]": {"settings": "chronic, duration: 103 weeks, oral, diet, F, Fischer 344"}, "[10]": {"settings": "chronic, duration: 103 weeks, oral, diet, M, Fischer 344"}, "[11]": {"settings": "developmental, duration: 10 days, oral, gavage, Crl:CD(SD)"}, "[12]": {"settings": "subchronic, duration: 12 weeks, oral, diet, F, Fischer 344"}, "[13]": {"settings": "subchronic, duration: 12 weeks, oral, diet, M, Fischer 344"}, "[14]": {"settings": "developmental, M/F, reduced pup weight"}, "[15]": {"settings": "subchronic, M/F, clinical sign (e.g., hunched postures) and reduced body weight"}, "[16]": {"settings": "chronic, duration: 2 years, diet, M/F, hematological effects (females)"}, "[17]": {"settings": "chronic, duration: 2 years, diet, M/F, reduced body weight, increased bun"}, "[18]": {"settings": "chronic, duration: 2 years, diet, M/F, reduced body weight gain (males) increased food and water consumption (males) and females"}, "[19]": {"settings": "developmental, M/F, reduced body weight in parents and pups during lactation"}}, "note": "“And” between values parts separate entries of the source, which are not always exact repeats. Equal entries are not always repeated.", "data": [{"molecule": "O=c1cc(-c2ccc(O)cc2)oc2cc(O)cc(O)c12", "note": "[Apigenin]", "values": [{"measurement": "LEL", "setting": "Rattus norvegicus [1]; duration: 7 days, oral", "result": 5, "unit": "mg/kg-day"}]}, {"molecule": "O=Cc1ccccc1", "note": "[Benzaldehyde]", "values": [{"measurement": "NOEL", "setting": "Rattus norvegicus [2]; Deaths + Body Weight Changes: decrease + Histopathology: Brain/cerebellum -Degeneration Brain/cerebellum -Necrosis Brain/cerebellum -…", "result": 200, "unit": "mg/kg-day"}, {"measurement": "LOAEL", "setting": "Rattus norvegicus [3]; [5]", "result": 400, "unit": "mg/kg-day"}, {"measurement": "NOEL", "setting": "Rattus norvegicus [3]; [5]", "result": "143 mg/kg-day and 200 mg/kg-day"}]}, {"molecule": "O=C(c1ccccc1)c1ccccc1", "note": "[Benzophenone]", "values": [{"measurement": "LEL", "setting": "Rattus norvegicus [1]; duration: 3 days, injection, intraperitoneal", "result": 300, "unit": "mg/kg-day"}, {"measurement": "LEL", "setting": "Rattus norvegicus [1]; duration: 3 days, injection, subcutaneous", "result": 500, "unit": "mg/kg-day"}, {"measurement": "LEL", "setting": "Rattus norvegicus [1]; duration: 3 days, oral", "result": 400, "unit": "mg/kg-day"}]}, {"molecule": "CCCCC(CC)COC(=O)CCCCCCCCC(=O)OCC(CC)CCCC", "note": "(centres undefined) [Bis(2-ethylhexyl) decanedioate]", "values": [{"measurement": "LD50", "setting": "Mus musculus; oral, gavage", "result": 9500, "unit": "mg/kg"}, {"measurement": "LD50", "setting": "Rattus norvegicus [4]; acute, oral, gavage", "result": 17000, "unit": "mg/kg"}]}, {"molecule": "O=C([O-])c1[nH]n(-c2ccc(S(=O)(=O)[O-])cc2)c(=O)c1N=Nc1ccc(S(=O)(=O)[O-])cc1.[Na+].[Na+].[Na+]", "note": "[C.I. Acid Yellow 23]", "values": [{"measurement": "NOAEL (% diet)", "setting": "Mus musculus; subchronic, duration: 3 months, oral, diet, CD1", "result": 5}, {"measurement": "NOAEL", "setting": "Mus musculus; subchronic, duration: 3 months, oral, diet, F, CD1", "result": 9750, "unit": "mg/kg-day"}, {"measurement": "NOAEL", "setting": "Mus musculus; subchronic, duration: 3 months, oral, diet, M, CD1", "result": 8100, "unit": "mg/kg-day"}, {"measurement": "NOAEL (% diet)", "setting": "Rattus norvegicus [4]; chronic, duration: 113 weeks, oral, diet", "result": 5}, {"measurement": "NOAEL", "setting": "Rattus norvegicus [4]; chronic, duration: 113 weeks, oral, diet, F", "result": 3350, "unit": "mg/kg-day"}, {"measurement": "NOAEL", "setting": "Rattus norvegicus [4]; chronic, duration: 113 weeks, oral, diet, M", "result": 2640, "unit": "mg/kg-day"}, {"measurement": "NOAEL", "setting": "Rattus norvegicus [4]; developmental, duration: 19 days, oral, gavage, Osborne-Mendel", "result": "> 1000", "unit": "mg/kg-day"}, {"measurement": "NOAEL (% diet)", "setting": "Rattus norvegicus [4]; reproduction developmental, duration: 114 weeks, oral, diet", "result": 5}, {"measurement": "NOAEL", "setting": "Rattus norvegicus [4]; reproduction developmental, duration: 114 weeks, oral, diet, M", "result": "2640 mg/kg-day and 3350 mg/kg-day"}, {"measurement": "NOAEL", "setting": "Rattus norvegicus [4]; reproduction developmental, duration: 19 days, oral, gavage, F, Osborne-Mendel", "result": "> 1000", "unit": "mg/kg-day"}]}, {"molecule": "Cc1cc(N=Nc2c(O)ccc3ccccc23)c(S(=O)(=O)[O-])cc1Cl.Cc1cc(N=Nc2c(O)ccc3ccccc23)c(S(=O)(=O)[O-])cc1Cl.[Ba+2]", "note": "[C.I. Pigment Red 53]", "values": [{"measurement": "NOAEL", "setting": "Mus musculus; [6]", "result": 90, "unit": "mg/kg-day"}, {"measurement": "NOAEL", "setting": "Rattus norvegicus [4]; [6]", "result": 25, "unit": "mg/kg-day"}, {"measurement": "NOAEL", "setting": "Rattus norvegicus [4]; reproduction developmental, duration: 30 months, oral, gavage, F", "result": "< 10000", "unit": "ppm"}, {"measurement": "NOAEL", "setting": "Rattus norvegicus [4]; reproduction developmental, duration: 30 months, oral, gavage, generation: F0", "result": "> 10000", "unit": "ppm"}, {"measurement": "NOAEL", "setting": "Rattus norvegicus [4]; reproduction developmental, duration: 30 months, oral, gavage, generation: F1", "result": "> 10000", "unit": "ppm"}]}, {"molecule": "O=S(=O)([O-])c1ccc(N=Nc2c(O)ccc3cc(S(=O)(=O)[O-])ccc23)cc1.[Na+].[Na+]", "note": "[FD&C Yellow 6]", "values": [{"measurement": "LD50", "setting": "Mus musculus; injection, intraperitoneal, ICI Alderley Park Strain", "result": "≥ 4600 mg/kg and ≤ 5500 mg/kg"}, {"measurement": "LD50", "setting": "Mus musculus; oral, ICI Alderley Park Strain", "result": "> 6000", "unit": "mg/kg"}, {"measurement": "LOAEL", "setting": "Mus musculus; [7]", "result": 4620, "unit": "mg/kg-day"}, {"measurement": "NOAEL", "setting": "Mus musculus; [7]", "result": 2310, "unit": "mg/kg-day"}, {"measurement": "LOAEL", "setting": "Mus musculus; [8]", "result": 19700, "unit": "mg/kg-day"}, {"measurement": "NOAEL", "setting": "Mus musculus; [8]", "result": 9850, "unit": "mg/kg-day"}, {"measurement": "LD50", "setting": "Rattus norvegicus [4]; acute, injection, intraperitoneal, Carworth", "result": 3800, "unit": "mg/kg"}, {"measurement": "LD50", "setting": "Rattus norvegicus [4]; acute, oral, Carworth", "result": "> 10000", "unit": "mg/kg"}, {"measurement": "LD50", "setting": "Rattus norvegicus [4]; acute, oral, gavage, Wistar", "result": "> 2000", "unit": "mg/kg"}, {"measurement": "LOAEL", "setting": "Rattus norvegicus [4]; [9]", "result": "> 1950", "unit": "mg/kg-day"}, {"measurement": "NOAEL", "setting": "Rattus norvegicus [4]; [9]", "result": 1950, "unit": "mg/kg-day"}, {"measurement": "LOAEL", "setting": "Rattus norvegicus [4]; [10]", "result": 1950, "unit": "mg/kg-day"}, {"measurement": "NOAEL", "setting": "Rattus norvegicus [4]; [10]", "result": 975, "unit": "mg/kg-day"}, {"measurement": "LOAEL", "setting": "Rattus norvegicus [4]; [11]", "result": 300, "unit": "mg/kg-day"}, {"measurement": "NOAEL", "setting": "Rattus norvegicus [4]; [11]", "result": 100, "unit": "mg/kg-day"}, {"measurement": "NOAEL", "setting": "Rattus norvegicus [4]; reproduction developmental, duration: 126 days, oral, diet, Charles River Albino CD (R), generation: F0", "result": 1500, "unit": "mg/kg-day"}, {"measurement": "NOAEL", "setting": "Rattus norvegicus [4]; reproduction developmental, duration: 126 days, oral, diet, Charles River Albino CD (R), generation: F1", "result": 1500, "unit": "mg/kg-day"}, {"measurement": "NOAEL", "setting": "Rattus norvegicus [4]; reproduction developmental, oral, diet, Crl:CD(SD)", "result": 500, "unit": "mg/kg-day"}, {"measurement": "LOAEL", "setting": "Rattus norvegicus [4]; [12]", "result": 1200, "unit": "mg/kg-day"}, {"measurement": "NOAEL", "setting": "Rattus norvegicus [4]; [12]", "result": 576, "unit": "mg/kg-day"}, {"measurement": "LOAEL", "setting": "Rattus norvegicus [4]; [13]", "result": 2400, "unit": "mg/kg-day"}, {"measurement": "NOAEL", "setting": "Rattus norvegicus [4]; [13]", "result": 1200, "unit": "mg/kg-day"}]}, {"molecule": "CCN(CC)c1ccccc1", "note": "[N,N-Diethylaniline]", "values": [{"measurement": "LD50", "setting": "Mus musculus; injection, Intraperitoneal", "result": 870, "unit": "mg/kg"}, {"measurement": "LD50", "setting": "Rattus norvegicus [4]; acute, dermal", "result": 5000, "unit": "mg/kg"}, {"measurement": "LC50", "setting": "Rattus norvegicus [4]; acute, inhalation", "result": 1.92, "unit": "µg/mL"}, {"measurement": "LD50", "setting": "Rattus norvegicus [4]; acute, oral", "result": 720, "unit": "mg/kg"}, {"measurement": "LD50", "setting": "Rattus norvegicus [4]; acute, oral, gavage, Wistar", "result": 606, "unit": "mg/kg"}, {"measurement": "LOAEL", "setting": "Rattus norvegicus [4]; short-term, duration: 28 days, oral, gavage, Wistar", "result": 10, "unit": "mg/kg-day"}]}, {"molecule": "CC(=O)CC(=O)N(C)C", "note": "[N,N-Dimethylacetoacetamide]", "values": [{"measurement": "LD50", "setting": "Mus musculus; oral, gavage", "result": "≥ 3200", "unit": "mg/kg"}, {"measurement": "LD50", "setting": "Rattus norvegicus [4]; acute, oral, gavage", "result": "≥ 3200", "unit": "mg/kg"}]}, {"molecule": "CCCCCCCCCCCCCCCCCC(=O)[O-].CCCCCCCCCCCCCCCCCC(=O)[O-].[Ba+2]", "note": "[Octadecanoic acid, barium salt]", "values": [{"measurement": "LD50", "setting": "Mus musculus; oral", "result": 1830, "unit": "mg/kg"}]}, {"molecule": "C=C(C)[C@H]1Cc2c(ccc3c2O[C@@H]2COc4cc(OC)c(OC)cc4[C@@H]2C3=O)O1", "note": "[Rotenone]", "values": [{"measurement": "LEL", "setting": "Rattus norvegicus [3]; [14]", "result": 1.88, "unit": "mg/kg-day"}, {"measurement": "NOEL", "setting": "Rattus norvegicus [3]; [14]", "result": 0.38, "unit": "mg/kg-day"}]}, {"molecule": "[N-]=[N+]=[N-].[Na+]", "note": "[Sodium azide]", "values": [{"measurement": "NOEL", "setting": "Rattus norvegicus [2]; Deaths + Clinical Observation: Hunched posture Ruffled fur Lethargy Decreased appetite Impaired breathing + Body Weight Changes: decrease + …", "result": "< 1.25", "unit": "mg/kg-day"}, {"measurement": "LOAEL", "setting": "Rattus norvegicus [3]; [15]", "result": 10, "unit": "mg/kg-day"}, {"measurement": "NOAEL", "setting": "Rattus norvegicus [3]; [15]", "result": 5, "unit": "mg/kg-day"}]}, {"molecule": "CCNc1nc(NC(C)(C)C)nc(SC)n1", "note": "[Terbutryn]", "values": [{"measurement": "LEL", "setting": "Rattus norvegicus [3]; [16]", "result": 15, "unit": "mg/kg-day"}, {"measurement": "NOEL", "setting": "Rattus norvegicus [3]; [16]", "result": 0.1, "unit": "mg/kg-day"}]}, {"molecule": "CCN(CC)C(=O)SCc1ccc(Cl)cc1", "note": "[Thiobencarb]", "values": [{"measurement": "LEL", "setting": "Rattus norvegicus [3]; [17]", "result": 5, "unit": "mg/kg-day"}, {"measurement": "NOEL", "setting": "Rattus norvegicus [3]; [17]", "result": 1, "unit": "mg/kg-day"}]}, {"molecule": "CC1(C)[C@H](C(=O)O[C@H](C#N)c2cccc(Oc3ccccc3)c2)[C@@H]1C(Br)C(Br)(Br)Br", "note": "(some centres undefined) [Tralomethrin]", "values": [{"measurement": "LEL", "setting": "Rattus norvegicus [3]; [18]", "result": 3, "unit": "mg/kg-day"}, {"measurement": "NOEL", "setting": "Rattus norvegicus [3]; [18]", "result": 0.75, "unit": "mg/kg-day"}, {"measurement": "LEL", "setting": "Rattus norvegicus [3]; [19]", "result": 3, "unit": "mg/kg-day"}, {"measurement": "NOEL", "setting": "Rattus norvegicus [3]; [19]", "result": 0.75, "unit": "mg/kg-day"}]}, {"molecule": "[O]=[V](=[O])[O][V](=[O])=[O]", "note": "[Vanadium oxide (V2O5)]", "values": [{"measurement": "NOAEL", "setting": "Rattus norvegicus [3]; chronic, reduced hair cystine", "result": 0.89, "unit": "mg/kg-day"}]}]}
